From patent US20200323828A1, “METHODS OF TREATING BEHAVIOR ALTERATIONS” (Oryzon Genomics, S.A., priority 2017, published 2020) come the findings set out here.

Holding throughout (type): in vivo
Data set [1] has as its system male SAMP8 mice. Description: Elevated plus maze (EPM) test in male SAMP8 mice. The protocol:
(§1) Animals (n=8/group) were treated from month 5 of age with vehicle, 0.32 or 0.96 mg/kg/day Compound 1, and by month 7 of treatment they were sequentially submitted to the OF and EPM test at one week intervals.
(§2) Vehicle (1.8% 2-Hydroxypropyl-(3-cyclodextrin, Sigma-Aldrich, Spain) or KDM1A inhibitor (Compound 1) were administered in drinking water. SAMR1 mice treated with vehicle were included as a control (n=8). All drugs were administered via drinking water and diluted in vehicle. Drug concentration was calculated weekly in function of body weight and corrected in function of drinking water consumption.
Elevated Plus Maze (EPM): The EPM consisted of four arms at right angles to each other connected to a central square and maintained elevated 50 cm above the floor. Two of the opposite arms had high walls (enclosed arms, 30×5×15 cm), whereas the other two were open arms (30×5×0 cm). The animal was placed facing a closed arm, and its movements were video-recorded for 5 min and analyzed by video-tracking using SMART® (v3.0, PanLab, SLU, Spain).
(§3) Statistical analysis: SAMR1 and SAMP8 vehicle groups were compared by t-Test. Among the SAMP8 groups, different treatments were compared by oneway-ANOVA with Dunnet and SNK post-Hoc analysis.

For data set [2], the system named is male SAMP8 mice. Description: Open field (OF) test in male SAMP8 mice. The following applies: 0.32 or 0.96 mg/kg/day in drinking water. The protocol: as §1, §2
Open Field (OF): A 50×50-cm white plastic arena with 25-cm-high walls was used to analyze spontaneous exploratory behavior. The floor of the apparatus was divided into 25 equal squares. The movements of each animal were video recorded during 5 min. Locomotor activity was analyzed by video-tracking over the captured images using SMART® (v3.0, PanLab, SLU, Spain).
as §3

The subject of data set [3] is isolated Sprague-Dawley male rats. In words: Resident-intruder (RI) test in the rat isolation rearing model (social withdrawal). The source says: In this model, rats are isolated after weaning on postnatal day 21 (PND21) and deprived of the normal environment that preconditions their social behavior. Isolation in this phase of the development of the rat may lead to behavior alterations, particularly a lack of interest for social interactions, which can be used as a model for human social withdrawal.
(§4) Right after the weaning (post natal day 21-23), 48 Sprague-Dawley male rats were divided in two groups: Control (Non Isolated; n=12), maintained 3-4 animals per cage; Isolated (n=36), 1 animal per cage. Starting on postnatal day (PND) 61, adult isolated male rats were treated with vehicle, Compound 1 at 0.16 mg/kg/day or Compound 1 at 0.48 mg/kg/day (n=12/group) for 5 weeks. Control (non-isolated) animals were treated with vehicle. The administration route was drinking water and the vehicle 1.8% 2-hydroxypropyl-β-cyclodextrin. Drug concentration was adjusted weekly by body weight and water consumption. During the last week of treatment, all animals were tested in the RI (PND94) to evaluate social behavior and, on a different day, in the EPM test (PND87-88) to evaluate anxiety behavior.
The resident-intruder (RI) test was performed following a similar protocol to that described for mice in Example 3 above, as follows: Briefly, the test subject (resident) was maintained in its home cage without bedding changes for one week. […] The session was video-recorded during 15 min, and social interaction (parameters measured: active and passive social interaction, avoidance and time without social interaction) and aggressive behavior of the test subject were analyzed by an experimenter blind to the treatment.
Statistical analysis: Non Isolated and Isolated vehicle groups were compared by t-Test. Among the Isolated groups, different drug treatments were compared by oneway-ANOVA with Dunnet and SNK post-Hoc analysis.

Another data set concerns female SAMP8 mice. In words: Three chamber test (TCT) in female SAMP8 mice. The following applies: 0.96 mg/kg/day in drinking water for 4 months. The source says: In this test, after adaptation to the thee-chamber arena, a mouse is released into the middle chamber and allowed to explore the other compartments. In the adjacent ‘mouse’ compartment a docile stimulus mouse is situated in a mesh-wire container, while in the other adjacent compartment a similar container is located without stimulus mouse (object compartment). The propensity to approach or avoid the compartment with the stimulus mouse provides a measure of social interaction behavior/sociability. Wild type mice prefer social interaction and spend more time in the mouse compartment in comparison to the object compartment.
In this study, 8-month old female SAMP8 mice were treated either with vehicle (n=9) or 0.96 mg/kg/day of Compound 1 (n=12) for 4 months and then subjected to the TCT. […] Drug concentration was calculated weekly in function of body weight and corrected in function of drinking water consumption.
The TCT was performed in a Plexiglas transparent box with three identical consecutive chambers (15×15×20 cm) with two identical small metallic cages placed in both lateral chambers. […] This habituation time was monitored to avoid animals showing preference for one of the chambers. […] The time spent in each chamber and the time of direct exploration of the novel mice was measured during a total observation time of 10 minutes. […]

Data set [4] concerns isolated Sprague-Dawley male rats. Description: Elevated plus maze (EPM) test in the rat isolation rearing model. Conditions: 0.16 or 0.48 mg/kg/day in drinking water. The method, then: as §4
The elevated plus maze (EPM) test was perfomed following a similar protocol to that described for mice in Example 3 above, as follows: The EPM consisted of four arms at right angles to each other connected to a central square and maintained elevated 50 cm above the floor. Two of the opposite arms had high walls (enclosed arms, 46.5×12×42 cm), whereas the other two were open arms (46.5×12×0.3 cm). The animal was placed facing a closed arm, and its movements were video-recorded for 5 min and analyzed by video-tracking using SMART® (v2.5.21, PanLab, SLU, Spain). […]

The test system of data set [5] is male SAMP8 mice. In words: Resident-intruder (RI) test in male SAMP8 mice (aggressive behavior). The protocol: In this study, male SAMP8 animals were treated either with vehicle (n=5), 0.32 (n=8) or 0.96 (n=8) mg/kg/day of Compound 1 for 5 weeks from month 5 of age and then subjected to the RI test. Vehicle (1.8% 2-Hydroxypropyl-β-cyclodextrin, Sigma-Aldrich, Spain) or Compound 1 were administered in drinking water. SAMR1 mice treated with vehicle were included as a control (n=6). All drugs were administered via drinking water and diluted in vehicle. Drug concentration was calculated weekly in function of body weight and corrected in function of drinking water consumption.
The resident-intruder (RI) test was performed as follows: the test subject (resident) was maintained in its home cage without bedding changes for one week. […] The session (20 min) was video-recorded and social interaction (parameters tested: social interaction and rearings) and aggressive behavior (parameters tested: lateral threats, clinch attacks, keep-down behavior, and total attacks as the sum of all three aggressive behavior parameters measured) of the test subject were analyzed by an experimenter blind to the treatment.
as §3

As to `Nc1nnc(CN[C@@H]2C[C@H]2c2ccc(OCc3ccccc3)cc2)o1` [Compound 1, 5-((((1R,2S)-2-(4-(benzyloxy)phenyl)cyclopropyl)amino)methyl)-1,3,4-oxadiazol-2-amine], in the data set on male SAMP8 mice [1] (conclusion from OF and EPM tests in SAMP8 mice), the “anxiolytic or sedative activity” value is recorded as “did not have anxiolytic or sedative activity”. Moreover, the “time in the open arms of the EPM” value with male SAMP8 mice [1] (male SAMP8 mice, 0.32 or 0.96 mg/kg/day in drinking water) was “not significantly modified”. Besides, the locomotor activity result in the data set with male SAMP8 mice [2] is “nor did treatment with Compound 1 significantly affect locomotor activity”. Also, the number of evitations result in data set [3] (isolated rats, 0.16 or 0.48 mg/kg/day in drinking water for 5 weeks, vs non-isolated rats, FIG. 4) is listed as “restored to normality”. The “time without social interaction” value in data set [3] (isolated rats, 0.16 or 0.48 mg/kg/day in drinking water for 5 weeks, FIG. 3) is “dose dependently reduced”. In addition, the “tolerability of doses on long-term treatment” value is on record as “well-tolerated” in data set [3] (rats, 0.16 or 0.48 mg/kg/day in drinking water) and “well-tolerated” with male SAMP8 mice [5] (mice, 0.32 or 0.96 mg/kg/day in drinking water). Further, in the data set on female SAMP8 mice (vs SAMR1, FIG. 5), the “preference for the socialization chamber (mice chamber) over the Object chamber” value is given as “restored”. The “time spent exploring a novel mouse” value in the data set with female SAMP8 mice (vs SAMR1, FIG. 6) is “restored”. Besides, in data set [4], the “effect on anxiety or locomotor activity” value was “did not produce any significant effect”. In the data set with male SAMP8 mice [5] (male SAMP8 mice, 0.32 or 0.96 mg/kg/day in drinking water for 5 weeks, vs vehicle-treated SAMR1, FIG. 1), the “number of total attacks” value is recorded as “lowered the number of attacks in SAMP8 mice to SAMR1 levels”. Also, the “number of clinch attacks” value with male SAMP8 mice [5] (male SAMP8 mice, 0.32 or 0.96 mg/kg/day in drinking water for 5 weeks, vs vehicle-treated SAMR1, FIG. 2) is recorded as “lowered the number of attacks in SAMP8 mice to SAMR1 levels”.
